In the test the target is EmrE (Escherichia coli, UniProt P23895). As to the kind of experiment: biochemical.

One molecule from article PMC3253143 (Nature, 2011) can be followed below.

Sequence of EmrE (P23895 whole entry): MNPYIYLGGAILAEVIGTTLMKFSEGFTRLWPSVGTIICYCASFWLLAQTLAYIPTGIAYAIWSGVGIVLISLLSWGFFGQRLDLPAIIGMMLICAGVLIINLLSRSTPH

For the molecule `c1ccc([P+](c2ccccc2)(c2ccccc2)c2ccccc2)cc1` [TPP^+], the Kd is 120 ± 12 nM.

For orientation: Kd means the free concentration of one partner at which half of the binding sites on the other are occupied at equilibrium, for simple one-to-one binding. Lower therefore signals higher affinity.
